Source: ChEMBL document CHEMBL1909046, “DrugMatrix in vitro pharmacology data”

Experiments:
Leukotriene C4 synthase = target: T1, Leukotriene C4 synthase (Cavia porcellus, UniProt A6XA80); format: tissue-based, Lung;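 further: enzyme inhibition assay of leukotriene C4 synthase, using LTA4 as the substrate; in other assays of this panel Not Active means under 50% inhibition at 10 µM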
T1 sequence (A6XA80 whole entry): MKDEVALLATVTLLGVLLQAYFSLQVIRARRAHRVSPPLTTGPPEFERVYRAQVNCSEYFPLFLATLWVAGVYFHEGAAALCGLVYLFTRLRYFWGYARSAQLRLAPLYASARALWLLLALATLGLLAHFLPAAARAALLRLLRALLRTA

[1] = target: Platelet-activating factor receptor (Homo sapiens, UniProt P25105); format: tissue-based; further: in other assays of this panel Not Active means under 50% inhibition at 10 µM
Chain of Platelet-activating factor receptor (P25105 whole entry): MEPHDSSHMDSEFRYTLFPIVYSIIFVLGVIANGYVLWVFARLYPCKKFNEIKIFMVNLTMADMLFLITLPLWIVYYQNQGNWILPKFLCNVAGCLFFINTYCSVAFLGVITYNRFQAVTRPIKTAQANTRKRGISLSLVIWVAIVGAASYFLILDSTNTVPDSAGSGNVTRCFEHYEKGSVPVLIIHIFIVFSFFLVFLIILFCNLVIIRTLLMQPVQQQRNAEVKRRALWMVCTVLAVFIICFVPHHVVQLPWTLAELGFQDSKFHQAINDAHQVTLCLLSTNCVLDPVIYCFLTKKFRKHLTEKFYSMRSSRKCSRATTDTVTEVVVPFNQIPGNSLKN

Estrogen receptor beta = Estrogen receptor beta (Homo sapiens, UniProt Q92731); details: sf9; further: in other assays of this panel Not Active means under 50% inhibition at 10 µM
Chain of Estrogen receptor beta (Q92731 whole entry): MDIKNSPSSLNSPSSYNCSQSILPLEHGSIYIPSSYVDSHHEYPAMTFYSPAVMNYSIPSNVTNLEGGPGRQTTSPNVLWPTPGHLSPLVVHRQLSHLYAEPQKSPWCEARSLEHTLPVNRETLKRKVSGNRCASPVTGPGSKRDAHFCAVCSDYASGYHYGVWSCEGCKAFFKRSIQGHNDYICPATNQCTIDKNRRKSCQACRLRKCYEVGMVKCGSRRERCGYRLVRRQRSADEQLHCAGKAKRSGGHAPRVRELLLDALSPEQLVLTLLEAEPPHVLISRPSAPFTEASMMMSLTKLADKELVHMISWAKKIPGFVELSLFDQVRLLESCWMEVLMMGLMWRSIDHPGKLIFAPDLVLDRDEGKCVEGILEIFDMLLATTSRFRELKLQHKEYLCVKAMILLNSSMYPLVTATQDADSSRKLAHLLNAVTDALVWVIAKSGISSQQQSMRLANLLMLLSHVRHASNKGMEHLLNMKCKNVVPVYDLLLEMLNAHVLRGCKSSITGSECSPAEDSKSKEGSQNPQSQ

[2] = target: T2, Nitric oxide synthase, inducible (Mus musculus, UniProt P29477); set-up: species or system Escherichia coli;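 further: inhibition of iNOS enzyme activity measured with L-arginine as substrate; in other assays of this panel Not Active means under 50% inhibition at 10 µM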
T2 sequence (P29477 whole entry): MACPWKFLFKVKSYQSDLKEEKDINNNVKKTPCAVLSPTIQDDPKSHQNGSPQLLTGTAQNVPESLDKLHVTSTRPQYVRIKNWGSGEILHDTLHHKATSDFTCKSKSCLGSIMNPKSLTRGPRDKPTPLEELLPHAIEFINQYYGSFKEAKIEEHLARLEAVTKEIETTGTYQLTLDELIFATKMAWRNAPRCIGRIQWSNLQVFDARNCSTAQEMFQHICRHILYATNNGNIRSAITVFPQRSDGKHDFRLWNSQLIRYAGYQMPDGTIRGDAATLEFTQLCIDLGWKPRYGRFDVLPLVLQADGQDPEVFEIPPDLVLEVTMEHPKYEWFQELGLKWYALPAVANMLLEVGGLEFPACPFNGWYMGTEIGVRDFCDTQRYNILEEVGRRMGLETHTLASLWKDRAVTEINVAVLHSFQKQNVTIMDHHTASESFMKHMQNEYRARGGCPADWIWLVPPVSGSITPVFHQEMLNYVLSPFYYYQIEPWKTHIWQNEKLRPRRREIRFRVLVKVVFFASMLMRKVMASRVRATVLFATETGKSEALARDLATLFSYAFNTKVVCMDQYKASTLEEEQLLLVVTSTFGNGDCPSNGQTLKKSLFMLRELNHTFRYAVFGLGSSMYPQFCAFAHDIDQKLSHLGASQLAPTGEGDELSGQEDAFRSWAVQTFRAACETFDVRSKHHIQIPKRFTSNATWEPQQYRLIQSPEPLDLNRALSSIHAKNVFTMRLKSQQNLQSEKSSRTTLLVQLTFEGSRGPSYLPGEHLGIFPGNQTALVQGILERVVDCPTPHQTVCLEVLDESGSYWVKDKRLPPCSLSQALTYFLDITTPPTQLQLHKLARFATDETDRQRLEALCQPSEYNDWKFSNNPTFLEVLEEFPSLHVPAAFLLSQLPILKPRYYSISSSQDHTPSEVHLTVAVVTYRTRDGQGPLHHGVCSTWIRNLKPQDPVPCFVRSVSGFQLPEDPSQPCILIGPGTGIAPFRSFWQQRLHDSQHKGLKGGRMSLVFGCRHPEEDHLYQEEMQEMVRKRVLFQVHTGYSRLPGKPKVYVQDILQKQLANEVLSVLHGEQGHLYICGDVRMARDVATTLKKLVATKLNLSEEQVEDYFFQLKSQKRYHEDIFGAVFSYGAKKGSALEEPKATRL

[3] = target: Mitogen-activated protein kinase 3 (Homo sapiens, UniProt P27361); assay: DRUGMATRIX: Protein Serine/Threonine Kinase, ERK1 enzyme inhibition (substrate: Myelin Basic Protein); set-up: species or system Escherichia coli; details: Not Active = under 50% inhibition at 10 µM
Chain of Mitogen-activated protein kinase 3 (P27361 whole entry): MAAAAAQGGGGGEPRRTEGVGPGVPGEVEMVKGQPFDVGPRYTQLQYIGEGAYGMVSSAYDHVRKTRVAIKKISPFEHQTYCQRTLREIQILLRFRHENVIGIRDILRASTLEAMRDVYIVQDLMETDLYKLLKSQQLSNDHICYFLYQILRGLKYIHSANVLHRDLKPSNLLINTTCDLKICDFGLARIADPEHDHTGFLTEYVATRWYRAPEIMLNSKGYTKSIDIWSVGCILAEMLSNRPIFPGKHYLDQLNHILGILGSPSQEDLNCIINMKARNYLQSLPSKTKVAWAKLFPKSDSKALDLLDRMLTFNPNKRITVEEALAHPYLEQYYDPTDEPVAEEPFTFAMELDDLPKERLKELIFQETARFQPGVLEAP

[4] = target: 5-hydroxytryptamine receptor 4 (Cavia porcellus, UniProt O70528); format: cell membranes, Dunkin-Hartley, Striatum, Membrane; further: in other assays of this panel Not Active means under 50% inhibition at 10 µM
Chain of 5-hydroxytryptamine receptor 4 (O70528 whole entry): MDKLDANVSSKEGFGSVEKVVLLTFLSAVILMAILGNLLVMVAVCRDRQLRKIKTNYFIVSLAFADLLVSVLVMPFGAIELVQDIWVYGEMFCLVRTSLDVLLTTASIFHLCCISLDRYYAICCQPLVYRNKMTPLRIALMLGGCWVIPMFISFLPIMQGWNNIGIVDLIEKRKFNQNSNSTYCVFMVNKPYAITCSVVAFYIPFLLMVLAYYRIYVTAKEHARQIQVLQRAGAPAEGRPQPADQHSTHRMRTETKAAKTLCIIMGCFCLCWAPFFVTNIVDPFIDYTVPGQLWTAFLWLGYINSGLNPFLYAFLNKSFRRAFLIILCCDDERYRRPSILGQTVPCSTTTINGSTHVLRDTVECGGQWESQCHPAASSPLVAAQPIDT

[5] = target: T3, Angiotensin-converting enzyme (Oryctolagus cuniculus, UniProt P12822); format: tissue-based, Lung
T3 sequence (P12822 whole entry): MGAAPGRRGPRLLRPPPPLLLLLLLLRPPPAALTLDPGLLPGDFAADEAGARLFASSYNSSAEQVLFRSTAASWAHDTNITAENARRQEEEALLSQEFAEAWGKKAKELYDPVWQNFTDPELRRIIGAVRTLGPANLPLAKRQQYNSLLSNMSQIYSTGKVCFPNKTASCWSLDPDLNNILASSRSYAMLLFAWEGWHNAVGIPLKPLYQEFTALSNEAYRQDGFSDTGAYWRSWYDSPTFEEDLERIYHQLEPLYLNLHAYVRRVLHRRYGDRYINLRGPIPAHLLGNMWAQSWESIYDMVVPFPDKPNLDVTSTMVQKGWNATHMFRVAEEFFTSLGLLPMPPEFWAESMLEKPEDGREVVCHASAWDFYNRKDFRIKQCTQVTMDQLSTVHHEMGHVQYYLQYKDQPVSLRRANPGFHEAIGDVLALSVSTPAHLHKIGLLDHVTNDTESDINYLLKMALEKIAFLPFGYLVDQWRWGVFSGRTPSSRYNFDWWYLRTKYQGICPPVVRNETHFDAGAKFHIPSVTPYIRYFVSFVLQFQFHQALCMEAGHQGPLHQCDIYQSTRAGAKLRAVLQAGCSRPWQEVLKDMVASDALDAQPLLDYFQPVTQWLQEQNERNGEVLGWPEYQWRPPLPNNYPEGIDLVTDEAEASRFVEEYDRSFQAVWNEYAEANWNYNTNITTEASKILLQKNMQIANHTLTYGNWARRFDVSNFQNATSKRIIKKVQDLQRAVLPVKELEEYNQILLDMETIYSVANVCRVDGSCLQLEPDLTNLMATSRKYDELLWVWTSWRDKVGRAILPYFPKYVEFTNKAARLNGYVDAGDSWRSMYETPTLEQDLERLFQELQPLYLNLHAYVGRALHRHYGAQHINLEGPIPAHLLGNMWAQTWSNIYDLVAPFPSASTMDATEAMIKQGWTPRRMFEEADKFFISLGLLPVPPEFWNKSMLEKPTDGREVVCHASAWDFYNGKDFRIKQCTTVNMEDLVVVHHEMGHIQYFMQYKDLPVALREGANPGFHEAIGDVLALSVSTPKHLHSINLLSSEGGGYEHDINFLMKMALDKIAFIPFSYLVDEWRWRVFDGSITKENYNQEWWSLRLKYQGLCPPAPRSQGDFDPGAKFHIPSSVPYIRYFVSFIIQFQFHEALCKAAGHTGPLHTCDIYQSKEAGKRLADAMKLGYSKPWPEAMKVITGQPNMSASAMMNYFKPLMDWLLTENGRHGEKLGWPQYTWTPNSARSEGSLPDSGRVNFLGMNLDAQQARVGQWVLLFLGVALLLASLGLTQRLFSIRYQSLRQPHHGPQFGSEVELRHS

Acetylcholinesterase = Acetylcholinesterase (Homo sapiens, UniProt P22303); assay: DRUGMATRIX: Acetylcholinesterase enzyme inhibition (substrate: acetylthiocholine); format: cell-based, HEK293; details: hek293; Not Active = under 50% inhibition at 10 µM
Chain of Acetylcholinesterase (P22303 whole entry): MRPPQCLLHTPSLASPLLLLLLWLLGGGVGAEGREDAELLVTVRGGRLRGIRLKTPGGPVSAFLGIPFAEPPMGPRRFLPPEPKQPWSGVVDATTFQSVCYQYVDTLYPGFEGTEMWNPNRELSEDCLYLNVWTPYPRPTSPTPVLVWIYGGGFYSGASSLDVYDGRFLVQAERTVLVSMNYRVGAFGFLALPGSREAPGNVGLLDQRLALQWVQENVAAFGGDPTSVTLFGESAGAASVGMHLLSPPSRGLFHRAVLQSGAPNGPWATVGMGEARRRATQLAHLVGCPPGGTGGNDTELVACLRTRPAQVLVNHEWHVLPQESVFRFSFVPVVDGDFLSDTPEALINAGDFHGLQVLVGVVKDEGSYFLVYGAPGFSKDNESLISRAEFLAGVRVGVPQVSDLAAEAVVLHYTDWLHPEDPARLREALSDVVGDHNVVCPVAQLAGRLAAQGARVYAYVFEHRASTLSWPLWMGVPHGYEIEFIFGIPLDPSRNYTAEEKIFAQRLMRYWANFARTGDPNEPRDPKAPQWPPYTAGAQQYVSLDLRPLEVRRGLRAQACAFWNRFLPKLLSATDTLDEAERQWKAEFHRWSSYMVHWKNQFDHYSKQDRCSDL

ZIRCONIUM(IV) CHLORIDE
Not Active: IC50 (Leukotriene C4 synthase) | Ki (Leukotriene C4 synthase) | IC50 [1] | Ki [1] | IC50 (Estrogen receptor beta) | Ki (Estrogen receptor beta) | IC50 [2] | Ki [2] | IC50 [3] | Ki [3] | IC50 [4] | Ki [4] | IC50 [5] | Ki [5] | IC50 (Acetylcholinesterase) | Ki (Acetylcholinesterase)
